In publication PMC10914734 (Signal Transduction and Targeted Therapy, 2024):

What was measured:
SARS-CoV-2 = assay: Authentic virus inhibition assay, SARS-CoV-2 wild-type strain in Vero-E6 cells; assay type: cell-based; details: Severe acute respiratory syndrome coronavirus 2, Vero C1008
MERS-CoV PsV = assay: microbe, parasite or virus in culture; assay type: cell-based; details: Middle East respiratory syndrome-related coronavirus, Huh-7, read-out: EC50, MERS-CoV PsV
Human Trypsin = assay: Protease panel, trypsin inhibition; assay type: biochemical; details: at a concentration of 20 μM
HCoV-OC43 = assay: microbe, parasite or virus in culture; assay type: cell-based; details: Betacoronavirus 1, OC43, RD, read-out: EC50, authentic HCoV-OC43
Pharmacokinetics in mice = assay type: in vivo; details: 14b; for MRT inf: read-out: MRTINF_obs; for AUC(0-inf): read-out: AUCINF_obs
C57BL/6 mice = assay: In vivo acute toxicity study in mice; details: oral, 1000 mg/kg/day and 2000 mg/kg/day
Experimental: C57BL/6 mice (aged 6–8 weeks, 16–25 g) consisting of half male and half female were used to assess toxicity of compounds 14a and 14b in vivo. Compounds, vehicle, dosage, and administration schemes are shown in Supplementary Table S6. In short, mice were treated with compounds 14a and 14b at the indicated doses by oral gavage and the mice were clinically observed for 12 days after administration, including body weights, food consumption, and general status. At the end of the studies, the mice were anesthetized by Zoletil 50, and the organ and tissue samples were observed by naked eyes.

Human Caspase 3 = Human Caspase 3 (Homo sapiens, UniProt P42574); assay: Protease panel, caspase 3 inhibition; assay type: biochemical; details: at a concentration of 20 μM; read-out: Inhibition rate, Human Caspase 3
SARS-CoV-2 PsV = assay: microbe, parasite or virus in culture; assay type: cell-based; details: Severe acute respiratory syndrome coronavirus 2, 293T/ACE2, read-out: EC50, SARS-CoV-2 PsV
SARS-CoV-2 PL^pro = SARS-CoV-2 PL^pro (Severe acute respiratory syndrome coronavirus 2, UniProt P0DTD1); assay: biochemical; assay type: biochemical; details: at a concentration of 20 μM
Pharmacokinetics in dogs = assay type: in vivo; details: for AUC(0-inf): read-out: AUCINF_obs; for MRT inf: read-out: MRTINF_obs
Experimental: Three groups of male Beagle dogs weighing 9 to 12 kg (2 animals per group) were intravenously (1 mg/kg), subcutaneously (1 mg/kg) and orally (5 mg/kg) dosed 14a in a vehicle consisting of 5% dimethyl sulfoxide, 7.5% Kolliphor HS 15 and 87.5% saline (volume ratio). Serial blood samples were collected at 0.083, 0.25, 0.75, 2.0, 4.0, 6.0, 8.0 and 24.0 h for the intravenous and […] groups and 0.25, 0.5, 1.0, 2.0, 4.0, 6.0, 8.0 and 24.0 h for the oral group after dose administration. Two groups of male Beagle dogs weighing 9 to 12 kg (3 animals per group) were intravenously (1 mg/kg) and subcutaneously (1 mg/kg) dosed 14b in a vehicle consisting of 5% dimethyl sulfoxide, 5% ethanol, 40% polyethylene glycol 400 and 50% saline (volume ratio). Serial blood samples were collected at 0.083, 0.25, 0.50, 1.00, 2.00, 4.00, 8.00 and 24.0 h after dose administration. A group of 3 male Beagle dogs weighing 9 to 12 kg was administered an oral dose of 5 mg/kg 14b in a vehicle consisting of 5% dimethyl sulfoxide and 95% hydroxypropyl methyl cellulose solution (0.5% hydroxypropyl methyl cellulose in deionized water in weight ratio) (volume ratio). Serial blood samples were collected at 0.25, 0.50, 1.00, 2.00, 4.00, 8.00 and 24.0 h after dose administration. All blood samples were obtained by centrifugation and stored at -20 °C until analysis.
Plasma compound concentrations were obtained through HPLC-MS/MS, and the pharmacokinetics parameters were analyzed by Phoenix WinNonlin 7.0. The following parameters were determined: Cmax (maximal concentration of drug in plasma), AUClast or AUCINF_obs (area under the concentration curve from the time of dosing to the last measurable concentration or from the time of dosing to infinity, respectively). Tmax (time of maximum observed concentration), T1/2 (half-life of elimination), MRTINF_obs (mean residence time extrapolated to infinity for a substance administered by indicated dosing using observed last concentration), CL (total body clearance), Vss (volume of distribution at steady state) and F (absolute bioavailability, F = (AUCx × Di.v.)/( AUCi.v. × Dx) × 100%, where x is i.p., s.c. or p.o., and AUC is AUCINF_obs).The pharmacokinetic parameters were analyzed by Phoenix WinNonlin 7.0.

[1] = CD-1, mouse, plasma, po, p.o. (20 mg/kg)
[2] = male, CD-1, mouse, plasma, ip, i.p. (20 mg/kg)
[3] = male, CD-1, mouse, plasma, iv, i.v. (10 mg/kg)
[4] = male, Beagle, dog, plasma, iv, i.v. (1 mg/kg)
[5] = male, Beagle, dog, plasma, po, p.o. (5 mg/kg)
[6] = male, Beagle, dog, plasma, sc, s.c. (1 mg/kg)

Chain of Human Caspase 3 (P42574 29-175 limits assumed): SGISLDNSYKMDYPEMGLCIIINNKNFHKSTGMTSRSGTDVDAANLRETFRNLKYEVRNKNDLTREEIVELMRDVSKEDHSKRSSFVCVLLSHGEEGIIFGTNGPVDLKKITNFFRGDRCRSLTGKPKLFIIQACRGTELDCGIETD
Chain of Human Caspase 3 (P42574 176-277 limits assumed): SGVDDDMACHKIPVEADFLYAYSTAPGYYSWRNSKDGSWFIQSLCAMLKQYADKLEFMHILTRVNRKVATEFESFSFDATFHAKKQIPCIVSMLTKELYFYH

O=C(NCc1ccccc1)C(=O)[C@H](C[C@@H]1CCCNC1=O)NC(=O)[C@H](CC1CCCCC1)NC(=O)c1cc2ccccc2o1 [14b, N-((S)-1-(((S)-4-(benzylamino)-3,4-dioxo-1-((S)-2-oxopiperidin-3-yl)butan-2-yl)amino)-3-cyclohexyl-1-oxopropan-2-yl)benzofuran-2-carboxamide]
EC50 (SARS-CoV-2): < 40 nM | EC50 (MERS-CoV PsV): 13.6 ± 3.05 nM | Inhibition rate, Human Trypsin (Human Trypsin): 1 ± 1% | EC50 (HCoV-OC43): 1310 ± 320 nM | Vss_obs (Pharmacokinetics in mice; i.v. (10 mg/kg)): 6.419 ± 2.698 L/kg | AUC(0-t) (Pharmacokinetics in mice; [1]): 463 ± 225 ng·h/mL | Cmax (Pharmacokinetics in mice; [1]): 290 ± 189 ng/mL | Tmax (Pharmacokinetics in mice; [1]): 0.25 h | bioavailability (Pharmacokinetics in mice; [1]): 8% | half-life (Pharmacokinetics in mice; [1]): 1.32 ± 0.77 h | MRT inf (Pharmacokinetics in mice; [1]): 2.11 ± 0.87 h | AUC(0-t) (Pharmacokinetics in mice; [2]): 7300 ± 782 ng·h/mL | Cmax (Pharmacokinetics in mice; [2]): 3270 ± 374 ng/mL | Tmax (Pharmacokinetics in mice; [2]): 0.18 ± 0.12 h | bioavailability (Pharmacokinetics in mice; [2]): 128% | half-life (Pharmacokinetics in mice; [2]): 5.77 h | AUC(0-inf) (Pharmacokinetics in mice; [2]): 7640 ng·h/mL | MRT inf (Pharmacokinetics in mice; [2]): 5.34 ± 1.81 h | AUC(0-t) (Pharmacokinetics in mice; [3]): 2900 ± 1020 ng·h/mL | clearance (Pharmacokinetics in mice; [3]): 62.5 ± 27.4 mL/min/kg | half-life (Pharmacokinetics in mice; [3]): 3.34 ± 2.38 h | AUC(0-inf) (Pharmacokinetics in mice; [3]): 2980 ng·h/mL | MRT inf (Pharmacokinetics in mice; [3]): 1.88 ± 1.08 h | AUC(0-inf) (Pharmacokinetics in mice; male, CD-1, mouse, plasma, po, p.o. (20 mg/kg)): 488 ng·h/mL | Acute toxicity study, abnormalities in body weights, food mean daily consumption and general status (C57BL/6 mice): No abnormalities | Acute toxicity study, mortality (C57BL/6 mice): No mice died | Acute toxicity study, organs and tissues damage (C57BL/6 mice; at the end of observation): No obvious organs and tissues damage | Acute toxicity study, overall result (C57BL/6 mice; twice daily, observed 12 days): No obvious toxicity | inhibition (Human Caspase 3): 39 ± 2% | EC50 (SARS-CoV-2 PsV): 0.61 ± 0.06 nM | Inhibitory activity against papain-like protease (PL^pro) (in words) (SARS-CoV-2 PL^pro): no inhibitory activity | inhibition at 20 µM (SARS-CoV-2 PL^pro; read-out: Inhibition rate, SARS-CoV-2 PL^pro): 8 ± 1% | Vss_obs (Pharmacokinetics in dogs; i.v. (1 mg/kg)): 1.59 ± 0.557 L/kg | AUC(0-t) (Pharmacokinetics in dogs; [4]): 544 ± 148 ng·h/mL | clearance (Pharmacokinetics in dogs; [4]): 31.9 ± 7.8 mL/min/kg | half-life (Pharmacokinetics in dogs; [4]): 1.07 ± 0.29 h | AUC(0-inf) (Pharmacokinetics in dogs; [4]): 546 ± 148 ng·h/mL | MRT inf (Pharmacokinetics in dogs; [4]): 0.82 ± 0.11 h | AUC(0-t) (Pharmacokinetics in dogs; [5]): 271 ± 166 ng·h/mL | Cmax (Pharmacokinetics in dogs; [5]): 235 ± 173 ng/mL | Tmax (Pharmacokinetics in dogs; [5]): 0.58 ± 0.38 h | bioavailability (Pharmacokinetics in dogs; [5]): 10% | half-life (Pharmacokinetics in dogs; [5]): 2 ± 0.85 h | AUC(0-inf) (Pharmacokinetics in dogs; [5]): 283 ng·h/mL | MRT inf (Pharmacokinetics in dogs; [5]): 2.19 ± 0.86 h | AUC(0-t) (Pharmacokinetics in dogs; [6]): 948 ± 46 ng·h/mL | Cmax (Pharmacokinetics in dogs; [6]): 151 ± 36 ng/mL | Tmax (Pharmacokinetics in dogs; [6]): 2.08 ± 1.88 h | bioavailability (Pharmacokinetics in dogs; [6]): 178% | half-life (Pharmacokinetics in dogs; [6]): 3.19 ± 1.57 h | AUC(0-inf) (Pharmacokinetics in dogs; [6]): 973 ± 54 ng·h/mL | MRT inf (Pharmacokinetics in dogs; [6]): 4.69 ± 1.25 h
